PubChem BioAssay (NCI)
Several values for one entry are separate records, joined by “and”; a condition that tells them apart may be missing. Equal entries are not always repeated.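 Compound exposure: 48 hours, 5 concentrations, 96-well plates. GI50 marks 50% less growth. TGI: total growth inhibition.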

Columns and labels:
Experiment in all cases: NCI tumour cell line growth inhibition, 48 h
[1] = system: OVCAR-5 ovarian
[2] = system: NCI-H522 lung
[3] = system: KM12 colon
[4] = system: M14 melanoma
[5] = system: BT-549 breast
[6] = system: TK-10 renal
[7] = system: A549 NSCLC
[8] = system: SK-MEL-2 melanoma
[9] = system: OVCAR-3 ovarian
[10] = system: SNB-75 CNS

Row | SMILES | GI50 [1] | TGI [1] | GI50 [2] | TGI [2] | GI50 [3] | TGI [3] | GI50 [4] | TGI [4] | GI50 [5] | TGI [5] | GI50 [6] | TGI [6] | GI50 [7] | TGI [7] | GI50 [8] | TGI [8] | GI50 [9] | TGI [9] | TGI [10] | GI50 [10]
1 | Cc1cc(C(=O)/C=C/c2ccc[nH]2)ccc1-n1ccc(C(F)(F)F)n1 | > 100 µM | > 100 µM | 3680 nM | 65.6 µM | 1.01 µM | > 100 µM | 30700 nM | > 100 µM | 1360 nM | 3.12 µM | 27.5 µM | > 100 µM | 6.82 µM | > 100 µM | > 100 µM | > 100 µM | 2290 nM | 6.78 µM | – | –
2 | CCCCC(C)/C=C/C(=O)C1=C(O)/C(=C/C(=O)O)OC1=O (centres undefined) | – | > 100 µM | – | – | – | > 100 µM | – | > 100 µM | – | – | – | > 100 µM | – | > 100 µM | – | > 100 µM | – | > 100 µM | > 100 µM | –
3 | Nc1ccc(-c2cc(C(=O)Nc3nccs3)[nH]c(=S)n2)cc1 | – | > 100 µM | – | > 100 µM | – | > 100 µM | – | > 100 µM | – | – | – | > 100 µM | – | > 100 µM | – | > 100 µM | – | > 100 µM | > 100 µM | –
4 | O=C1C(=C2CCCC2)CCC1CN1CCCCC1 (centres undefined) | – | 39.8 µM | – | 3.45 µM | – | 39.7 µM | – | 29.6 µM | – | – | – | 27.1 µM | – | > 100 µM | – | 30.7 µM | – | 30.6 µM | 15.5 µM | –
5 | CCC/C=C\C=C\C1(NS(=O)(=O)c2ccc(C)cc2)CCC(C(C)(C)C)CC1 (centres undefined) | – | 43.8 µM | – | 12.1 µM | – | 31.9 µM | – | 37.1 µM | – | – | – | 69.9 µM | – | 38.6 µM | – | 29 µM | – | 21.9 µM | 72.1 µM | –
6 | C[C@H]1C/C=C/[C@H]2[C@@H]3O[C@]3(C)[C@@H](C)[C@H]3[C@H](Cc4ccccc4)NC(=O)[C@]32OC(=O)O/C=C/[C@@](C)(O)C1=O | – | > 95.4 µM | 12.5 nM and 25 nM | 4.24 µM and 12.3 µM and 39.8 µM | 11.7 µM and 29.1 µM | 125 µM and > 250 µM | – | 25.4 µM | – | – | – | – | 0.0462 µM | – | 34.2 µM | 38.6 µM and 125 µM | 25 nM | – | – | 25 nM
7 | Cc1ccc(S(=O)(=O)NC(=O)NCCc2ccccc2)cc1 | – | > 100 µM | – | > 100 µM | – | > 100 µM | – | > 100 µM | – | – | – | > 100 µM | – | > 100 µM | – | > 100 µM | – | > 100 µM | > 100 µM | –
8 | CN1CCN(c2ccc(OC(F)(F)F)c(Nc3ncc4c(n3)-c3c(c(C(N)=O)nn3CCO)CC4)c2)CC1 | 0.055 µM and 0.0577 µM | 51.8 µM and > 10 µM | 30 nM and 26.5 nM | – | 0.0328 µM and 0.0354 µM | 35.4 µM and > 10 µM | 40.4 nM and 42.8 nM | – | 87.5 nM and 176 nM | 18 µM and > 10 µM | – | – | 0.0745 µM and 0.169 µM | 16 µM and > 10 µM | 0.0543 µM | > 10 µM | 37 nM and 42.4 nM | 18.2 µM and > 10 µM | 11.7 µM and 1.49 µM | 58.2 nM and 145 nM
9 | CCOC(=O)C(=O)Nc1cc(Cl)c(Cl)cc1Cl | – | > 100 µM | – | > 100 µM | – | > 100 µM | – | > 100 µM | – | – | – | > 100 µM | – | – | – | > 100 µM | – | > 100 µM | > 100 µM | –
10 | O=[P+](O)c1ccccn1 | – | > 100 µM | – | > 100 µM | – | > 100 µM | – | > 100 µM | – | – | – | > 100 µM | – | > 100 µM | – | – | – | > 100 µM | > 100 µM | –
11 | S=c1o[nH]c(-c2ccccc2)c1C=Nc1ccccc1 | – | > 100 µM | – | > 100 µM | – | > 100 µM | – | > 100 µM | – | – | – | > 100 µM | – | > 100 µM | – | > 100 µM | – | – | > 100 µM | –
12 | Cc1ccccc1NC(=O)/C=N/O | – | > 100 µM | – | > 100 µM | – | > 100 µM | – | > 100 µM | – | – | – | > 100 µM | – | > 100 µM | – | > 100 µM | – | > 100 µM | > 100 µM | –
13 | CN(C)CCC(/C=C/c1ccccc1)=N\Nc1ccc(Cl)c(Cl)c1 | – | 15.6 µM | – | 4.41 µM | – | 4.41 µM | – | 7.22 µM | – | – | – | 6.18 µM | – | 10.6 µM | – | 6.31 µM | – | 16.8 µM | 5.9 µM | –
14 | COC(=O)CCC(=O)N1C/C(=C\c2ccccc2)C(=O)/C(=C/c2ccccc2)C1 | – | 6.24 µM | – | – | – | 2.84 µM | – | 3.93 µM | – | – | – | 13.2 µM | – | 12.3 µM | – | – | – | 5.01 µM | 5.27 µM | –
15 | Nc1ncnc2c1ncn2C1OC(COS(N)(=O)=O)C(O)C1O (centres undefined) | – | – | – | 0.0148 µM | – | – | 2.14 nM and 18.1 nM | 0.00494 µM and 0.036 µM | 2.66 nM and 26.6 nM | – | – | – | – | – | – | – | – | – | 0.0083 µM and 0.0565 µM | 2.55 nM and 19.4 nM
16 | Cc1coc2c1C(=O)C(=O)c1ccccc1-2 | – | 3.55 µM | – | – | – | 3.49 µM | – | 2.63 µM | – | – | – | 3.3 µM | – | 4.07 µM | – | 3.78 µM | – | 3.29 µM | 3.15 µM | –
17 | COc1cc(-n2cc(-c3ccccc3)[nH]c2=O)cc(OC)c1OC | > 100 µM | > 100 µM | 27200 nM | > 100 µM | > 100 µM | > 100 µM | > 100000 nM | > 100 µM | – | – | 39.6 µM | > 100 µM | 38.9 µM | > 100 µM | > 100 µM | > 100 µM | 23200 nM | > 100 µM | 34 µM | 13900 nM
18 | O=C(O)c1cc2ccccc2c2c3c(ccc12)OCO3 | 279 µM | > 1000 µM | – | – | 219 µM | 702 µM | 179000 nM | 493 µM | 119000 nM | 390 µM | 231 µM | 616 µM | 197 µM | 621 µM | 166 µM | 333 µM | 183000 nM | 468 µM | 265 µM | 77800 nM
19 | CCCCCCCCOCC(O)CO (centres undefined) | – | > 100 µM | – | > 100 µM | – | > 100 µM | – | > 100 µM | – | – | – | > 100 µM | – | > 100 µM | – | > 100 µM | – | > 100 µM | > 100 µM | –
20 | CC(C)(C)OP(=O)(OC(C)(C)C)C(O)c1ccc(/C=C(\C#N)C(N)=O)cc1 (centres undefined) | – | > 100 µM | – | > 100 µM | – | > 100 µM | – | > 100 µM | – | – | – | > 100 µM | – | > 100 µM | – | > 100 µM | – | > 100 µM | > 100 µM | –
21 | C/C(=N\NC(N)=S)c1ccc(C)c(C)c1 | – | > 100 µM | – | – | – | > 100 µM | – | > 100 µM | – | – | – | > 100 µM | – | > 100 µM | – | > 100 µM | – | 66.7 µM | > 100 µM | –
